{"source": "patent US10294230B2", "about": "“3,3-difluoropiperidine carbamate heterocyclic compounds as NR2B NMDA receptor antagonists” (Rugen Holdings (Cayman) Limited, priority 2015, dated 2019)", "test_system": "pentylenetetrazole (PTZ) induced convulsions", "test": "Pentylenetetrazole (PTZ) Seizure Test", "format": "in vivo", "settings": "10 mg/kg p.o., mesylate salt", "procedure": "Rats, placed in individual macrolon cages (25×19×13 cm), were injected with pentylenetetrazole (PTZ) (100 mg/kg s.c.). The occurrence and latency of clonic and tonic convulsions and death were noted over a 30 minute period. 15 rats were studied per group. The test was performed blind. […]\nCompounds were evaluated typically using 0.5% dimethylsulfoxide, 4% hydroxypropyl-b-cyclodextrin water as a vehicle at 1 or more doses (e.g., 1, 3 and 10 mg/kg), administered p.o. 30 minutes before PTZ, and compared with a vehicle control group. Diazepam (16 mg/kg p.o.), administered 60 minutes before PTZ, was used as reference substance. The experiment was performed over 2 separate sub-experiments with N=7 to 8 animals per group and per sub-experiment. Quantitative data (latencies) with the test substance was analyzed by comparing treated groups with vehicle control using Kruskal-Wallis test followed by Mann-Whitney U test. Quantitative data with the reference substance was analyzed using Mann-Whitney U test. Quantal data (frequencies) was analyzed by comparing treated groups with vehicle control using Fisher's Exact Probability tests (*=p<0.05; **=p<0.01; ***=p<0.001).", "data": [{"smiles": "Cc1ccc(COC(=O)N2CC[C@H](CNc3nccn4cnnc34)C(F)(F)C2)cc1", "note": "[Compound E1-1.2, (+)-R-4-methylbenzyl 4-(([1,2,4]triazolo[4,3-a]pyrazin-8-ylamino)methyl)-3,3-difluoropiperidine-1-carboxylate]", "values": [{"measurement": "number of rats showing tonic convulsions, change vs vehicle controls", "result": "−82", "unit": "%"}, {"measurement": "latency to clonic convulsions, change vs vehicle controls", "setting": "rats", "result": "+72%"}, {"measurement": "latency to death, change vs vehicle controls", "setting": "rats", "result": "+35%"}, {"measurement": "latency to tonic convulsions, change vs vehicle controls", "setting": "rats", "result": "+39%"}, {"measurement": "number of deaths, change vs vehicle controls", "setting": "rats", "result": "−91", "unit": "%"}]}]}
